# Measured values reported in patent US10988478B1, “Pyrazolo[1,5a]pyrimidine derivatives as IRAK4 modulators” (Genentech, Inc., priority 2015, dated 2021).
# Target: human IRAK4 (Homo sapiens (Human), UniProt Q9NWZ3)
# Assay: IRAK4 kinase inhibition, Transcreener fluorescence polarization ADP assay
# Format: biochemical
# Details: recombinant full-length His6-IRAK4; 125 uM ATP; 90 min; Ki computed using ATP Km 642 uM
# Protocol: Compounds were assayed for inhibition of human IRAK4 and IRAK1 catalytic activity using recombinant enzyme produced from insect cells. Full-length IRAK4 protein, carrying an N-terminal His6-Tag, was obtained from Life Technologies (Carlsbad, Calif., USA). The IRAK1 construct was produced internally and was comprised of IRAK1 residues Arg194 to Ser712, preceded by an NH2-terminal His6 tag and the coding sequence for glutathione-S-transferase.
# human IRAK4, sequence (Q9NWZ3 whole entry): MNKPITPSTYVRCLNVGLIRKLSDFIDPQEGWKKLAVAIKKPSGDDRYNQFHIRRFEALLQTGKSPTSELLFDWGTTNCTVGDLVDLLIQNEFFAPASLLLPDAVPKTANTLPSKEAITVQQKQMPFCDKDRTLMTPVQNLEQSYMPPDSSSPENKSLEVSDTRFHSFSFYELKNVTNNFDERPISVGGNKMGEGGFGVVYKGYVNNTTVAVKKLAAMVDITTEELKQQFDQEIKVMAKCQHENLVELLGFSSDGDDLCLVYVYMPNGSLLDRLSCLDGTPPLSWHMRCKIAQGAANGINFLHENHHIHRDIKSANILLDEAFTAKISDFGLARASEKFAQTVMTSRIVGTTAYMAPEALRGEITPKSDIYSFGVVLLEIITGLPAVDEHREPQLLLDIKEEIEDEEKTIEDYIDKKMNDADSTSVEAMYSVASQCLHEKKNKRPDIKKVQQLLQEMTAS
row,Structure (SMILES),Ki [nM]
1,"C[C@@H](CN1Cc2cc(NC(=O)c3cnn4cccnc34)c(N3CCOCC3)cc2C1=O)N1CCOCC1 [Example 551, N-[6-morpholino-2-[(2S)-2-morpholinopropyl]-1-oxo-isoindolin-5-yl]pyrazolo[1,5-a]pyrimidine-3-carboxamide]",2.9
2,"CN1CC[C@@H](N2Cc3cc(NC(=O)c4cnn5cccnc45)c(N4CCOCC4)cc3C2=O)C1=O [Example 553, N-[2-[(3R)-1-methyl-2-oxo-pyrrolidin-3-yl]-6-morpholino-1-oxo-isoindolin-5-yl]pyrazolo[1,5-a]pyrimidine-3-carboxamide]",58
3,"CN1CC[C@H](N2Cc3cc(NC(=O)c4cnn5cccnc45)c(N4CCOCC4)cc3C2=O)C1=O [Example 554, N-[2-[(3S)-1-methyl-2-oxo-pyrrolidin-3-yl]-6-morpholino-1-oxo-isoindolin-5-yl]pyrazolo[1,5-a]pyrimidine-3-carboxamide]",14
4,"O=C(Nc1cc2c(cc1N1CCOCC1)C(=O)N(C[C@H]1CCOC1)C2)c1cnn2cccnc12 [Example 556, N-[6-morpholino-1-oxo-2-[[(3R)-tetrahydrofuran-3-yl]methyl]isoindolin-5-yl]pyrazolo[1,5-a]pyrimidine-3-carboxamide]",4.5
5,"O=C(Nc1cc2c(cc1N1CCOCC1)C(=O)N(C[C@@H]1CCC[C@@H]1O)C2)c1cnn2cccnc12 [Example 559, N-[2-[[(1S,2S)-2-hydroxycyclopentyl]methyl]-6-morpholino-1-oxo-isoindolin-5-yl]pyrazolo[1,5-a]pyrimidine-3-carboxamide]",2.2
6,"O=C(Nc1cc2c(cc1N1CCOCC1)C(=O)N(C[C@H]1CCC[C@H]1O)C2)c1cnn2cccnc12 [Example 560, N-[2-[[(1R,2R)-2-hydroxycyclopentyl]methyl]-6-morpholino-1-oxo-isoindolin-5-yl]pyrazolo[1,5-a]pyrimidine-3-carboxamide]",1.6
7,"CC(C)(O)[C@H](F)CN1Cc2cc(NC(=O)c3cnn4cccnc34)c(N3CCC3)cc2C1=O [Example 563, N-[6-(azetidin-1-yl)-2-[(2R)-2-fluoro-3-hydroxy-3-methyl-butyl]-1-oxo-isoindolin-5-yl]pyrazolo[1,5-a]pyrimidine-3-carboxamide]",33
8,"O=C(Nc1cc2c(cc1N1CCOCC1)C(=O)N([C@H]1CCC[C@H]1CO)C2)c1cnn2cccnc12 [Example 564, N-(2-((1S,2R)-2-(hydroxymethyl)cyclopentyl)-6-morpholino-1-oxoisoindolin-5-yl)pyrazolo[1,5-a]pyrimidine-3-carboxamide]",28

# More lines, now with the values ahead:
row,Ki [nM],Structure (SMILES)
1,12,"C[C@H](CN1Cc2cc(NC(=O)c3cnn4cccnc34)c(N3CCOCC3)cc2C1=O)N1CCOCC1 [Example 552, N-[6-morpholino-2-[(2R)-2-morpholinopropyl]-1-oxo-isoindolin-5-yl]pyrazolo[1,5-a]pyrimidine-3-carboxamide]"
2,7.3,"C[C@H](O)[C@H](F)CN1Cc2cc(NC(=O)c3cnn4cccnc34)c(N3CCOCC3)cc2C1=O [Example 557, N-[2-[(2R,2S)-2-fluoro-3-hydroxy-butyl]-6-morpholino-1-oxo-isoindolin-5-yl]pyrazolo[1,5-a]pyrimidine-3-carboxamide]"
3,8.4,"C[C@@H](O)[C@@H](F)CN1Cc2cc(NC(=O)c3cnn4cccnc34)c(N3CCOCC3)cc2C1=O [Example 558, N-[2-[(2S,3R)-2-fluoro-3-hydroxy-butyl]-6-morpholino-1-oxo-isoindolin-5-yl]pyrazolo[1,5-a]pyrimidine-3-carboxamide]"
4,11,"C[C@H](O)[C@@H](F)CN1Cc2cc(NC(=O)c3cnn4cccnc34)c(N3CCOCC3)cc2C1=O [Example 561, N-(2-((2S,3S)-2-fluoro-3-hydroxybutyl)-6-morpholino-1-oxoisoindolin-5-yl)pyrazolo[1,5-a]pyrimidine-3-carboxamide]"
5,1.9,"C[C@@H](O)[C@H](F)CN1Cc2cc(NC(=O)c3cnn4cccnc34)c(N3CCOCC3)cc2C1=O [Example 562, N-(2-((2R,3R)-2-fluoro-3-hydroxybutyl)-6-morpholino-1-oxoisoindolin-5-yl)pyrazolo[1,5-a]pyrimidine-3-carboxamide]"
